Assay results: patent US11254654B2, “Heterochromatin gene repression inhibitors” (The University of North Carolina at Chapel Hill, priority 2017, dated 2022)
Counter-ions that a name gives are not always drawn.

Tests used:
CiA:Oct4 N118/N163 cells = assay: Minus rapamycin counter screen for toxicity and cell differentiation; type: cell-based; details: 10 μM compound, no rapamycin, 48 hrs
Method: Day 0, CiA:Oct4 N118/163 cells were grown in ES media and seeded at a density of 10,000 cells per well (100,000 cells/mL) into gelatin coated 96 well plates. Day 1, media was aspirated and replaced with […] fresh ES media containing +/−6 nM rapamycin and 10 μM dilution of compounds from the EpiG compound set. Day 2, 100 μL fresh ES media containing +/−6 nM rapamycin and 10 μM dilution of compounds from the EpiG compound set was added as on Day 1. Day 3, the media was aspirated out of the wells and the cells were washed with PBS and trypsinized using 0.25% trypsin-EDTA. Trypsin was quenched with serum. Cells were resuspended by pipetting to prepare the plates for flow cytometry analysis.
Flow cytometry was performed using an Intellicyt iQue Screener and analyzed with FlowJo software. Cell populations were gated based on forward and side scatter area. Single cell populations were isolated using forward scatter area by forward scatter height gating. Dead or dying cells that equally fluoresced in the GFP and APC channels upon excitation with 488 nm laser were omitted as autofluorescent, and the remaining cells were gated into GFP (−) and GFP (+) populations. […] Statistics were performed using standard T-test analysis.
The CiA:Oct4 N118/N163 recruitment system also functions as an internal counter screen for toxicity and cell differentiation in the absence of rapamycin recruited csHP1α. […]

H3K9me2/3 = assay: Global H3K9me2/3 western blot of acid extracted histones; type: cell-based, mouse; details: 10 μM compound, 48 hours
Method: CiA:Oct4 N118/N163 cells were grown to confluency as described above in standard gelatin coated 6 well tissue culture plates. Media was aspirated and the cells were washed with 2 mL of PBS. The PBS was removed and the cells were trypsinized with 0.25% trypsin-EDTA until a single cell suspension was generated. Cells were transferred to a conical tube and pelleted at 300×g for 5 min. Supernatant was removed and the cells were washed with PBS and centrifuged at 300×g for 5 min. The PBS supernatant was removed. Nuclei were collected from the cells by resuspending the pellet in lysis buffer containing (50 mM HEPES pH 8.0, 140 mM NaCl, 1 mM EDTA, 10% glycerol, 0.5% NP40, 0.25% Triton X100). Cells were incubated in lysis buffer on ice for 10 min. Nuclei were pelleted at 1200×g for 5 min at 4° C. and the supernatant was removed. […]
SDS-PAGE sample gels were transferred to Millipore Immobilon-FL PVDF membranes either by semi-wet or wet transfer according to Bio-Rad procedure. […] Western blot membranes were imaged using the Licor Odyssey scanner and data analyzed using Image Studio v5.2 software.
HP1 gene repression and silencing is mediated by H3K9me3 deposition. […] Total extracted histone proteins were quantified by Bradford Coomassie and equal total protein was loaded per sample for gel electrophoresis and subsequent western blot analysis. […]

Structure (SMILES): COc1cc2nc(N3CCCC3)nc(N[C@H]3CCCNC3)c2cc1OC [compound 1, (S)-6,7-Dimethoxy-N-(Piperidin-3-yl)-2-(Pyrrolidin-1-yl)Quinazolin-4-Amine Trifluoroacetic Acid Salt]
- GFP positive population levels without csHP1α recruitment (CiA:Oct4 N118/N163 cells): did not decrease GFP positive population levels
- Global H3K9me2/3 levels normalized to histone H4 (H3K9me2/3): roughly equivalent decreases in H3K9 methylation
